Measured values reported in PMC4291223, “Inhibitors of CLK Protein Kinases Suppress Cell Growth and Induce Apoptosis by Modulating Pre-mRNA Splicing” (PLoS ONE, 2015).

How the values were obtained:
[1] = tested on: mRNA isoforms harboring PTCs in MDA-MB-468 cells; assay: Fluorescence pulse-chase RNA labeling assay; format: cell-based, human; details: 50 μM Cpd-1 or 5 μM Cpd-2
Experimental: MDA-MB-468 cells (5 × 10^5) were seeded into 6-well plates and incubated overnight. The cells were treated with each compound for 6 h and incubated with culture medium containing 5-EU (Invitrogen) to label cellular RNA. After incubation for 1 h, the medium was replaced with EU-free fresh medium and the cells were cultured for a further 24 h to allow degradation of the labeled RNA (chase). Cells were harvested before and after the chase and EU-labeled RNA was isolated using a Click-iT Nascent RNA Capture Kit (Invitrogen) according to the manufacturer’s instructions. The isolated RNA was analyzed by quantitative RT-PCR to measure the amount of each mRNA splice isoform.

Aurora kinase A = Aurora kinase A (Homo sapiens, UniProt O14965); assay: Kinase panel assay (Z'-LYTE, SelectScreen), Aurora kinase A; format: biochemical; details: 1 μM compound, 100 μM ATP; among kinases inhibited by more than 50%
Aurora kinase A, sequence (O14965 whole entry): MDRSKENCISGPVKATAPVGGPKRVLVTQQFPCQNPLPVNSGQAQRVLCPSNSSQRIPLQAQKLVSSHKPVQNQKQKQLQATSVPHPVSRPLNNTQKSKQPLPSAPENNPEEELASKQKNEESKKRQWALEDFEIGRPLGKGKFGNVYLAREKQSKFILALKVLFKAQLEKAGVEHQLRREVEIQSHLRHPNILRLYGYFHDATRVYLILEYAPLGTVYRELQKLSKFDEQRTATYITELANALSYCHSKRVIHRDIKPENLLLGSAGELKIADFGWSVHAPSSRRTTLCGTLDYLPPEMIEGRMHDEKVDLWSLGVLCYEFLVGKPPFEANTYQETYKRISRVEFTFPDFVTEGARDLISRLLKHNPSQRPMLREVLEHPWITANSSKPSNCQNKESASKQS
Experimental: (§1) Kinase panel assays were performed using the FRET-based Z’- LYTE enzymatic kinase assay system (Life Technologies, Carlsbad, CA), which was carried out using the SelectScreen Kinase Profiling Service (Life Technologies). The standard reaction contained 2 μM peptide substrate, 100 μM ATP, 50 mM HEPES (pH 7.5), 0.01% Brij-35, 10 mM MgCl2, 1 mM EGTA, and each kinase. Cpd-1, Cpd-2, and Cpd-3 at two point concentration (100 and 1000 nM) with duplicate data points (n = 2) were assayed following the detailed procedures outlined in the SelectScreen. The full assay protocol and conditions can be obtained at www.lifetechnologies.com. Percent inhibition represents a ratio of phosphorylated product formed in the presence of the compound compared with phosphorylated product formed in reactions containing 1% DMSO. Inhibition data indicates the mean value of kinase inhibition from duplicate data.

CLK2 = target: T1, CLK2 (Homo sapiens, UniProt P49760); assay: Kinase panel assay (Z'-LYTE, SelectScreen), CLK2 among 28 kinases; format: biochemical; details: 100 and 1000 nM
T1 construct: purchased Life Technologies
T1 sequence (P49760 whole entry): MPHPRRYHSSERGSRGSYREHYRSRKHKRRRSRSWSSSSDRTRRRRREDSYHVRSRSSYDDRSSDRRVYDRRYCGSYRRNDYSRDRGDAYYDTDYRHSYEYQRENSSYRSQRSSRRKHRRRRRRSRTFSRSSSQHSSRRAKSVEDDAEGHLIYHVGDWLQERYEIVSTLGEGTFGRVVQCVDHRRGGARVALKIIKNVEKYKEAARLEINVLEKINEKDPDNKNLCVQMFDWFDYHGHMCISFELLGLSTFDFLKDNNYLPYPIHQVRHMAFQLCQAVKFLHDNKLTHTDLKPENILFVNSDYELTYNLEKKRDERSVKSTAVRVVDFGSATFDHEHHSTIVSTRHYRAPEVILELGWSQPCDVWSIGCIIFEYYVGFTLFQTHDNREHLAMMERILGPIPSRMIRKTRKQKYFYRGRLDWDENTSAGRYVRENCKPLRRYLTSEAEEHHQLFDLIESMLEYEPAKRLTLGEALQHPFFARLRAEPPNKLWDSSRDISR
Experimental: as §1

PI3Kα = PI3Kα (Homo sapiens, UniProt P42336); assay: Kinase panel assay (Z'-LYTE, SelectScreen), PI3Kα; format: biochemical; details: 1 μM compound, 100 μM ATP; among kinases inhibited by more than 50%
PI3Kα, sequence (P42336 whole entry): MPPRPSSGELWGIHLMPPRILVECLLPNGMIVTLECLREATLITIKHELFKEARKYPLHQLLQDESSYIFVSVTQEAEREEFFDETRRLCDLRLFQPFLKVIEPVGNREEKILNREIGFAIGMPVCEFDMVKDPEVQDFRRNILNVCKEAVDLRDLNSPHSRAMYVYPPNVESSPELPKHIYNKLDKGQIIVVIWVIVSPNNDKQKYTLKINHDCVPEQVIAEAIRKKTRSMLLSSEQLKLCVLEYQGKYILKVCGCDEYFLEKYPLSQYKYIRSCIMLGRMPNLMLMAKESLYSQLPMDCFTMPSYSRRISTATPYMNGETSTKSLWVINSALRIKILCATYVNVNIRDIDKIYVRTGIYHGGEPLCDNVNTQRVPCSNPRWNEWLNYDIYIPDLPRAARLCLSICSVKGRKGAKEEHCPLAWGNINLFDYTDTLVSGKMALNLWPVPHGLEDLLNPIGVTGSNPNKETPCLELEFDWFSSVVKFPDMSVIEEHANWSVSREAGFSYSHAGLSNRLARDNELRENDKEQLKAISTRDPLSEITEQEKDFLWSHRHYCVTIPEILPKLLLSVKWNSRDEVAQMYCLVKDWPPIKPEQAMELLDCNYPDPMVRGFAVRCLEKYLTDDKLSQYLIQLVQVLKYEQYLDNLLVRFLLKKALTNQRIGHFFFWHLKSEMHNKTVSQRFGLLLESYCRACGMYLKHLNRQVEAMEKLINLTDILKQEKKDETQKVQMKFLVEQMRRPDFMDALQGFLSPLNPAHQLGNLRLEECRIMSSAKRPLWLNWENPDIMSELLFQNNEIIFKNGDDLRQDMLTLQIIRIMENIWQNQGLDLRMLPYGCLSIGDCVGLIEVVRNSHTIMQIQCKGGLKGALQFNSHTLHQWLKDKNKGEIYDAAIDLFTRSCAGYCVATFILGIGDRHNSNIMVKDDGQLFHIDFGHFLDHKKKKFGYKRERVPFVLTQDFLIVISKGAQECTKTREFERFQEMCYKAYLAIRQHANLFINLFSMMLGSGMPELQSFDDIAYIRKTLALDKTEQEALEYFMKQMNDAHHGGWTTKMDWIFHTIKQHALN
PI3Kα, sequence (P27986 whole entry partner): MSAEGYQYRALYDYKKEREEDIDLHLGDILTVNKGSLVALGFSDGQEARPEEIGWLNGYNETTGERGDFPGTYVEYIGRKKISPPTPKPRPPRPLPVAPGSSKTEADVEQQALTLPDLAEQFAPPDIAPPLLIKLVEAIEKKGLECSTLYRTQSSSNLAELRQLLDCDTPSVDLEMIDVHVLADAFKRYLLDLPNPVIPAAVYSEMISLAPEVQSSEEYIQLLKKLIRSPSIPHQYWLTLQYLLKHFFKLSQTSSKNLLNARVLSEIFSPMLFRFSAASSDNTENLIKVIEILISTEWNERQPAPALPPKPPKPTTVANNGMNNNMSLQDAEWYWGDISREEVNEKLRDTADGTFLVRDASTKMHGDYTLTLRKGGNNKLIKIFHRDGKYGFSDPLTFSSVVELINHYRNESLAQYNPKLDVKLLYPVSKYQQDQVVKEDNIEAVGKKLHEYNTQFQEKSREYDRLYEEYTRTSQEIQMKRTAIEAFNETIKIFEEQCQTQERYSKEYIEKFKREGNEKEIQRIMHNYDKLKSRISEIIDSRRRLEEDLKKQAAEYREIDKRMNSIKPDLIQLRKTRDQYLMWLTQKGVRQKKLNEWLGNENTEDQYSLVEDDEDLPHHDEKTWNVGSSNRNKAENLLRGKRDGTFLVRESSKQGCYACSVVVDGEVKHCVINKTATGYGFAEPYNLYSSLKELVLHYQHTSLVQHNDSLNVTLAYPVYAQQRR
Experimental: as §1

[2] = tested on: phospho-SR proteins in MDA-MB-468 cells; assay: Immunoblot of phospho-SR proteins; format: cell-based, human; details: MDA-MB-468, 3 h, anti-pan-phospho-SR antibody
Experimental: (§2) Cells were lysed in radioimmunoprecipitation assay buffer containing 50 mM Tris-HCl (pH 7.6), 150 mM NaCl, 1% Triton X-100, and protease inhibitor cocktail tablets (Roche). After removal of the insoluble matter by centrifugation at 15,000 rpm for 15 min, the protein concentrations of the supernatants were determined using a BCA Protein Assay Kit (Pierce Biotechnology, Rockford, IL). The lysates were directly combined with one-quarter volume of 5× sample buffer [25 mmol/L Tris-HCl pH 6.8, 10% glycerol, 0.8% SDS, and 0.004% bromophenol blue] and boiled at 100°C for 5 min. The samples were subjected to 5–20% gradient SDS-polyacrylamide gel electrophoresis, and the separated proteins were electrophoretically transferred to polyvinylidene difluoride membranes using an I-blot System (Invitrogen). The membranes were incubated with primary antibodies and visualized using enhanced chemiluminescence reagents (GE Healthcare). The primary antibodies were as follows: anti-phospho-SR (1H4), anti-SR (Invitrogen), anti-EGFR, anti-EIF3D, anti-GAPDH (Santa Cruz Biotechnology, Santa Cruz, CA), anti-S6K and anti-PARP (Cell Signaling Technology, Danvers, MA).

[3] = tested on: S6K, EIF3D, and EGFR in MDA-MB-468 cells; assay: Immunoblot of S6K, EIF3D and EGFR protein levels; format: cell-based, human; details: MDA-MB-468, 24 h
Experimental: as §2

SRPK3 = target: T2, SRPK3 (Homo sapiens, UniProt Q9UPE1); assay: In vitro kinase assay (ADP-Glo), SRPK3; format: biochemical; details: 5 µM ATP
T2 construct: purchased Millipore
T2 sequence (Q9UPE1 whole entry): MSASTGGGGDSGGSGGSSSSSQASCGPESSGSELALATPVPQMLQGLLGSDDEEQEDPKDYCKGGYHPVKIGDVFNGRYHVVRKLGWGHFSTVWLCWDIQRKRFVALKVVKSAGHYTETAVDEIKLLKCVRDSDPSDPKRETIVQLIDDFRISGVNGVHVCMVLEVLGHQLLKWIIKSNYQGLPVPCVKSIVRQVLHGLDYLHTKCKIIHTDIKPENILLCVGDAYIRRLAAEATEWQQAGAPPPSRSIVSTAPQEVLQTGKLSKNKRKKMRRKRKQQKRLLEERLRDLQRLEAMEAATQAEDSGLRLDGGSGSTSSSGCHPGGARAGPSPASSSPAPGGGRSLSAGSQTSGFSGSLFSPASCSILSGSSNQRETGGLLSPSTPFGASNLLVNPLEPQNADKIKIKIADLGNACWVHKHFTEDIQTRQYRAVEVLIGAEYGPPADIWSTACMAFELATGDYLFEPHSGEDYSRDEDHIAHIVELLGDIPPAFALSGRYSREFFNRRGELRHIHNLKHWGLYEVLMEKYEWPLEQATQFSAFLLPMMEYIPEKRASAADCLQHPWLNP
Experimental: The ATP concentration for each assay was adjusted to the Km for each kinase. Kinase assays for SRPK1–3 and CLK1 were performed using the ADP-Glo™ assay (Promega, Madison, WI). The kinase buffer contained 25 mM HEPES (pH 7.5), 10 mM magnesium acetate, 1 mM DTT, 0.01% BSA, and 0.01% Tween-20. The reaction mixtures contained 50 ng/mL SRPK1, 100 ng/mL SRPK2 or SRPK3, or 300 ng/mL CLK1 and 3 μM substrate peptide [GRSRSRSRSRSRSRSR] (Thermo Scientific). After incubating the enzyme, peptide, and compounds for 10 min, kinase reactions were initiated by adding ATP to a final concentration of 5 µM, followed by incubation for 30 min (15 min for SRPK1). The kinase reactions were terminated by adding ADP-Glo™ reagent (Promega). ADP was detected using a kinase detection reagent (Promega). The kinase activity of CLK2 was measured using the LANCE® Ultra assay (Perkin-Elmer, Waltham, MA) with ADP-Glo assay buffer. […] The enzyme reactions were terminated by adding 30 mM EDTA, and phosphorylated ULight-MBP peptides were detected using a europium-labeled anti-phospho-MBP antibody diluted with detection buffer (Perkin-Elmer). The plates were read using an EnVision 2102 multilabel reader (Perkin-Elmer). We defined the absorbance of the reaction without enzyme as 100% inhibitory activity and that of the complete reaction mixture as 0% inhibitory activity. […]

Row | inhibition of Aurora kinase A in kinase panel (Aurora kinase A) | inhibition of PI3Kα in kinase panel (PI3Kα) | IC50 (SRPK3) [µM] | SMILES | amounts of S6K mRNA isoforms harboring PTCs (exons 6–8, exons 6–10) versus canonical S6K exons 6–7 after 24 h chase [1] | inhibitory activity against CLK2 among the 28 critical oncology-related kinases (CLK2) | Phospho-SRSF1 (SF2) level [2] | phosphorylation levels of SRSF4 (SRp75) [2] | protein levels of S6K, EIF3D, and EGFR [3]
1 | moderately inhibited |  |  | CC(C)(CCc1nnn[nH]1)c1ccc(C(=O)Nc2cn3cc(C(F)(F)F)ccc3n2)cc1 [Cpd-1, 4-(2-methyl-4-(1H-tetrazol-5-yl)butan-2-yl)-N-(6-(trifluoromethyl)imidazo[1,2-a]pyridin-2-yl)benzamide] | significantly lower | strongest inhibitory activity against CLK2 |  |  | 
2 |  | moderately inhibited | 0.23 | CC(C)(C)c1ccc(C(=O)Nc2cn3cc(-c4cn[nH]c4)ccc3n2)cn1 [Cpd-2, 6-tert-butyl-N-(6-(1H-pyrazol-4-yl)imidazo[1,2-a]pyridin-2-yl)nicotinamide] | significantly lower | strongest inhibitory activity against CLK2 | decreased | at lower concentrations than Cpd-1 | reduced the protein levels of S6K, EIF3D, and EGFR in a concentration-dependent manner
3 | moderately inhibited |  | 0.26 | CC(C)(CO)c1ccc(C(=O)Nc2cn3cc(-c4cn[nH]c4)ccc3n2)cc1 [Cpd-3, 4-(1-hydroxy-2-methylpropan-2-yl)-N-(6-(1H-pyrazol-4-yl)imidazo[1,2-a]pyridin-2-yl)benzamide] |  | strongest inhibitory activity against CLK2 | decreased | at lower concentrations than Cpd-1 | 
